Common to all, as to type: in vivo
The test system of assay [1] is Swiss Albino mice. As to the kind of experiment: Cook's pole climbing test after scopolamine-induced amnesia. The note with it: for Escape latency: Cook's pole climbing test, scopolamine i.p., n=8; for Escape latency, faster than control: relative to vehicle control. The protocol:
Behavioral studies were conducted in mice to examine the learning and memory ability by using Cook's pole test.
(§1) Thirty-two 8-week-old male Swiss Albino mice were housed in an animal room at a constant temperature (22±3° C.) and humidity (30%-70%) under a 12:12 h light-dark cycle with standard laboratory diet (Purina 5L79, Rat and Mouse 18% protein; PMI Nutrition International, Brentwood, Mo., USA). Distilled water was provided ad libitum. All animal experiments were reviewed and approved by the Institutional Animal Ethical Committee (IAEC) of Radiant Research Services Pvt. Ltd (Bangalore, India). All research was conducted in accordance with the guidelines of the committee for the purpose of control and supervision of experiments on animals.
(§2) After one week of acclimation, the animals were randomly divided by body weight into four groups (n=8 per group in each test) for oral treatment once a day, at approximately same time each day (±1 hour), for 7 consecutive days: (1) vehicle control or (2) paraxanthine or (3) tyrosine or (4) tyrosine plus paraxanthine. The dose administered to the mice was calculated using US Food and Drug Administration for human equivalence doses (HED), assuming a human weight of 60 kg. The following HED was used in this study: 100 mg paraxanthine (ENFINITY®, Ingenious Ingredients, L.P Lewisville, Tex., USA; mouse dose: 20.5 mg/kg bw/day) or 500 mg tyrosine (mouse dose: 102.75 mg/kg bw/day), or 500 mg tyrosine (mouse dose: 102.75 mg/kg bw/day) plus 100 mg paraxanthine (ENFINITY®, Ingenious Ingredients, L.P Lewisville, Tex., USA; mouse dose: 20.5 mg/kg bw/day). 0.5% Carboxy Methyl Cellulose sodium was used as vehicle and the test item formulations were prepared daily. Dosing was conducted via oral gavage using disposable polypropylene syringes with sterilized stainless steel gavage tubes. Food intake was monitored daily while water intake was ad libitum.
Mice were trained in such a way that the animal had to climb the pole (shock free zone) within 30 seconds to avoid a shock. The shock was preceded by a buzzer that lasted for 15 seconds. The animals were trained to climb the pole at the sound of the buzzer (conditioned avoidance response). At particular intervals, 20 trials were given for each animal and average of the shock avoidance and mistakes were recorded. Trained animals were assayed by conditioned avoidance responses.
Amnesia was induced by using the scopolamine injection. Scopolamine is an anti-cholinergic and is an attractive amnesic agent for discerning the action of candidate anti amnesic drugs. Scopolamine is a non-selective post synaptic muscarinic receptor blocker and can cause cognitive impairments in rodents and humans via decreasing the effectiveness of ACH in the CNS in animals and humans. Scopolamine can induce the significant deficits in cognitive performance on behavioral tests which makes it a valid pharmacological model for inducing cognitive deficits. In this study to evaluate the cognitive effect, the mice were injected with scopolamine intraperitoneally to induce memory deficits.

Assay [2] has as its system Swiss Albino mice. Description: Forelimb grip strength test. The settings on record: oral once a day for 28 days; measured on day 0 and day 28, one hour after treatment. The protocol: as §1
After one week of acclimation, the animals were randomly divided by body weight into four groups (n=8 per group in each test) for oral treatment once a day, at approximately same time each day (±1 hour), for 28 consecutive days: (1) vehicle control or (2) paraxanthine or (3) tyrosine or (4) tyrosine plus paraxanthine. The dose administered to the mice was calculated using US Food and Drug Administration for human equivalence doses (HED), assuming a human weight of 60 kg. […] Food intake was monitored daily while water intake was ad libitum.
The forelimb grip strength was measured on day 0 and day 28 by using a stainless-steel grill to assess muscle strength (Orchid Scientific & Innovative India Pvt Ltd, India). Grip strength was measured one hour after treatment. […]

Assay [3] relates to Swiss Albino mice. Description: Force swim test, paraxanthine plus tyrosine study (Example 2). The note with it: oral once a day for 28 days; for Duration of mobility/active swimming: 30 min force swim on 28th day, n=8. Here is the method: as §1
as §2, with “for 28” for “for 7”
During treatment period, training was accomplished on a swimming chamber at a moderate room temperature for 15 mins. […] The parameters measured were total time spent in active swimming (the total duration during which the animal swims throughout the experimental period).

In assay [4] the test system is Swiss Albino mice. As to the kind of experiment: Force swim test, paraxanthine plus taurine study (Example 3). The note with it: 30 min force swim on 28th day; oral once a day for 28 days; n=8. Here is the method:
as §1, with “Twenty-four” for “Thirty-two”
as §2, with “into three” for “into four”, “for 28” for “for 7”, “(1) paraxanthine” for “(1) vehicle control”, “(2) taurine” for “(2) paraxanthine”, “(3) taurine” for “(3) tyrosine or (4) tyrosine”, “mg taurine” for “mg tyrosine”
During treatment period, training was accomplished on a swimming chamber at a moderate room temperature for 15 mins. The animals were adapted to this procedure daily 1 hr after dosing for 5 days in a week during the treatment period. On 28th day of respective treatment of all the animals were subjected to force swim test. Animals were forced to swim individually for 30 min in a glass jar of height 20 cm, diameter 10 cm, and filled with fresh water to a depth of 15 cm at room temperature. The parameter measured was total time spent in active swimming (the total duration during which the animal swims throughout the experimental period) and duration of immobility (the total time during which the animal is immobile).

For `N[C@@H](Cc1ccc(O)cc1)C(=O)O` [tyrosine], the Escape latency in assay [1] (oral once a day for 7 days) turned out to be 8.25 ± 1.04 s. For the same compound, in assay [1] (relative to paraxanthine group), the “Escape latency, slower than paraxanthine” value was determined as 29.3%. Further, in assay [1], the “Escape latency, faster than control” value came to 30.6%. For the same compound, the “Forelimb grip strength (in words, FIG. 1)” value in assay [2] is recorded as “improved strength at a lesser degree”. In addition, the “Duration of mobility/active swimming” value in assay [3] stood at 8.88 ± 1.46 min.
`Cn1c(=O)[nH]c2ncn(C)c2c1=O` [paraxanthine]: in assay [1] (oral once a day for 7 days), the Escape latency came out at 16.38 ± 2.33 s; the “Effect on scopolamine-induced amnesia, memory and learning (in words)” value is “reversal of amnesia induced by scopolamine and improved memory and learning”. Besides, in assay [1], the “Escape latency, faster than control” value is recorded as 46.3%. The “Forelimb grip strength (in words, FIG. 1)” value in assay [2] is recorded as “improved strength over control”. In addition, the “Duration of mobility/active swimming” value in assay [3] stood at 8.63 ± 1.92 min. In addition, the “Energy and mood (in words)” value in assay [3] (force swim test on 28th day) was “improved energy and mood”. For the same compound, in assay [4], the Duration of immobility was 21.38 ± 1.92 min and the “Duration of mobility/active swimming” value came to 8.63 ± 1.92 min.
Turning to `NCCS(=O)(=O)O` [taurine], in assay [4], the Duration of immobility worked out at 21.50 ± 2.20 min and the “Duration of mobility/active swimming” value came to 8.50 ± 2.20 min.
